According to publication PMC3986099, “Development of a Radioiodinated Triazolopyrimidine Probe for Nuclear Medical Imaging of Fatty Acid Binding Protein 4” (PLoS ONE, 2014):

Experiments:
[1] = Metabolite analysis in liver and kidneys; assay type: in vivo, ddY mice; conditions: 1 hr after i.v. administration, normal mice
Protocol: A saline solution (5% ethanol, v/v) of [^125I]TAP1 (1.20 MBq) was injected intravenously into the tail vein of ddY mice (males, 5 weeks old), and animals were sacrificed 1 hr post-injection. The liver and kidneys were removed and homogenized in 1 ml ice-cold 30 mM Tris-HCl buffer (pH = 8.5) containing 5 mM magnesium acetate at 4 °C. After addition of 3 ml cold methanol and vortexing, tissue samples were centrifuged (10,000×g, 5 min). The supernatants were filtered, and the filtrate was analyzed by RP-HPLC as described above.

[2] = In vitro stability in saline and plasma (RP-HPLC); assay type: in vitro ADME, ddY mice; conditions: 2 hr, 37 °C
Protocol: The in vitro stability of [^125I]TAP1 in plasma was measured using plasma samples taken from ddY mice (males, 7 weeks old). [^125I]TAP1 (0.07 MBq, 0.01 ml) was incubated with 0.1 ml plasma at 37 °C for 2 hr. After addition of 0.2 ml methanol and vortexing, the mixture was centrifuged (4,160×g, 10 min). The supernatant was filtered with a low protein binding hydrophilic PTFE membrane (Millex-LH MILLIPORE), and the filtrate was analyzed by RP-HPLC using a Cosmosil C18 column with an isocratic solvent of H2O (0.1% TFA, v/v)/acetonitrile (0.1% TFA, v/v) (37/63) at a flow rate of 1.5 ml/min.

O=c1cc(COc2cccc([125I])c2)[nH]c2nc(-c3ccccc3)nn12 [[^125I]TAP1]
intact form in kidneys [1]: more than 90% | intact form in liver [1]: more than 90% | stability in mouse plasma ([2]; mouse plasma): no radioactive degradation products were observed | stability in saline ([2]; saline): no radioactive degradation products were observed
